Measured values reported in patent publication US10829478B2, “5-[3-[piperazin-1-yl]-3-oxo-propyl]-imidazolidine-2,4-dione derivatives as ADAMTS 4 and 5 inhibitors for treating e.g. osteoarthritis” (Galapagos NV, priority 2016, dated 2020).
Like-named read-outs stand apart in the source and are kept apart here.

Assays:
human ADAMTS4 = human ADAMTS4 (Homo sapiens (Human), UniProt O75173); assay: hADAMTS-4 TBIS-1 cleavage assay, Protocol 2; format: biochemical
human TACE = human TACE (Homo sapiens (Human), UniProt P78536); assay: biochemical
Procedure: Finally, the fluorescence is read on the Envision (Perkin Elmer) after an incubation of 75 min at room temperature (Excitation 485 nm, Emission 530).

human MMP13 = human MMP13 (Homo sapiens (Human), UniProt P45452); assay: hMMP13 assay, Protocol 2 (390 MMP FRET Substrate I, Enzo enzyme); format: biochemical; details: Protocol 2, human MMP13 (Enzo Life Sciences), read-out: hMMP-13 potency IC50
Procedure: Human MMP13 is preactivated by incubated the enzyme in the same buffer complemented with 1 mM freshly prepared p-Aminophenylmercuric acetate (AMPA) for 1 h at 37° C.

human MMP14 = human MMP14 (Homo sapiens (Human), UniProt P50281); assay: hMMP14 assay (390 MMP FRET Substrate I); format: biochemical; details: human MMP14 (Biomol), read-out: hMMP-14 potency IC50
Procedure: The basis for the assay is the cleavage of the substrate 390 MMP FRET Substrate I (Anaspec Cat #AS-27076) by human MMP14 (Biomol, Cat #SE-259).
The reaction is initiated by adding to the assay plate 390 MMP FRET Substrate I (10 μL, 2.5 μM) in the same buffer.
Finally, the fluorescence is read on the Envision (Perkin Elmer) after an incubation of 60 min at room temperature (Excitation 485 nm, Emission 530).

human ADAMTS6 = human ADAMTS6 (Homo sapiens (Human), UniProt Q9UKP5); assay: hADAMTS-6 fluorescent based protease assay (520 MMP FRET substrate XII); format: biochemical; details: 37° C. for 2 h; read-out: hADAMTS-6 potency IC50
In short: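 ADAMTS6 (0.73 nM final) in 25 mM Tris pH 8.0, 0.05% CHAPS, 2.5 mM CaCl2 with compound dilution series (top 20 μM, 1/5 steps). Reaction started with 520 MMP FRET Substrate XII, incubated 2 h at 37 °C. Substrate cleavage read by fluorescence ex485/em530; IC50 determined.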

human ADAMTS-5 = human ADAMTS-5 (Homo sapiens (Human), UniProt Q9UNA0); assay: hADAMTS-5 TBIS-1 cleavage assay, Protocol 3; format: biochemical; details: 90 min at 37° C., read-out: hADAMTS-5 potency IC50
Procedure: The reaction is initiated by adding to the assay plate TBIS-1 (10 μL, 4.5 μM, Anaspec) in the same buffer.
Finally, the fluorescence is read on the Envision (Perkin Elmer) after an incubation of 90 min at 37° C. (Excitation 485 nm, emission 530).

[1] = Protocol 2, 180 min at 37° C., read-out: ADAMTS4 potency IC50

Chain of human TACE (P78536 215-671): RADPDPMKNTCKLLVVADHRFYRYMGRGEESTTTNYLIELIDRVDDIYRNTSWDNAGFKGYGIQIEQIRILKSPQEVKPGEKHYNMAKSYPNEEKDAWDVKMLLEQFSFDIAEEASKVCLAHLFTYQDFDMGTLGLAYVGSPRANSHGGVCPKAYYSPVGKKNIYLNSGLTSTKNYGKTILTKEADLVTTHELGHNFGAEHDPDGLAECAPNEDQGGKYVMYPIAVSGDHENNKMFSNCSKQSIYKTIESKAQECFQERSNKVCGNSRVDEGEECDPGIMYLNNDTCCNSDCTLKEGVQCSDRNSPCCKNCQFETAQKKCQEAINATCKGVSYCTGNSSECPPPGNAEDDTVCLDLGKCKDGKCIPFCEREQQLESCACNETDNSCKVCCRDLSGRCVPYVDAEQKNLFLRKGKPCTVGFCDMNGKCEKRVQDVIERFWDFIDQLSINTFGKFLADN
Chain of human ADAMTS-5 (Q9UNA0 262-930): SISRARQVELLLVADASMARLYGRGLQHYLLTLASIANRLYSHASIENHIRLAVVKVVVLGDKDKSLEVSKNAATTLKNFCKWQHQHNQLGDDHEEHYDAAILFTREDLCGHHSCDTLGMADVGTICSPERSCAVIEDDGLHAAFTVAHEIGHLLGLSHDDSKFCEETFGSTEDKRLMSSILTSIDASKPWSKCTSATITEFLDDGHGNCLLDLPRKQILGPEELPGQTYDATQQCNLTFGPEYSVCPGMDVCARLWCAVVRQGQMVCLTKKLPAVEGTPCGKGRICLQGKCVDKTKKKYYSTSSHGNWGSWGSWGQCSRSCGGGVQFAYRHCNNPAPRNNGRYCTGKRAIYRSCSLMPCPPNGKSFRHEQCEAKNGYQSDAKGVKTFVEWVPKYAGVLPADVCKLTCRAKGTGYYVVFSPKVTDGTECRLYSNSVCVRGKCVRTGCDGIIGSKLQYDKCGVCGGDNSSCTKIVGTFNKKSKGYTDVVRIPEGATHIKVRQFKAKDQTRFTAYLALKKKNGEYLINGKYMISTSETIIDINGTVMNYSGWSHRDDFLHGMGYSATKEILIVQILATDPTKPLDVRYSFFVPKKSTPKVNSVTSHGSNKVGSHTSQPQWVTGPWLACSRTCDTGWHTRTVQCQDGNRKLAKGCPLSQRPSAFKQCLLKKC
Chain of human ADAMTS6 (Q9UKP5 other isoform, or with tags, fused parts or gaps): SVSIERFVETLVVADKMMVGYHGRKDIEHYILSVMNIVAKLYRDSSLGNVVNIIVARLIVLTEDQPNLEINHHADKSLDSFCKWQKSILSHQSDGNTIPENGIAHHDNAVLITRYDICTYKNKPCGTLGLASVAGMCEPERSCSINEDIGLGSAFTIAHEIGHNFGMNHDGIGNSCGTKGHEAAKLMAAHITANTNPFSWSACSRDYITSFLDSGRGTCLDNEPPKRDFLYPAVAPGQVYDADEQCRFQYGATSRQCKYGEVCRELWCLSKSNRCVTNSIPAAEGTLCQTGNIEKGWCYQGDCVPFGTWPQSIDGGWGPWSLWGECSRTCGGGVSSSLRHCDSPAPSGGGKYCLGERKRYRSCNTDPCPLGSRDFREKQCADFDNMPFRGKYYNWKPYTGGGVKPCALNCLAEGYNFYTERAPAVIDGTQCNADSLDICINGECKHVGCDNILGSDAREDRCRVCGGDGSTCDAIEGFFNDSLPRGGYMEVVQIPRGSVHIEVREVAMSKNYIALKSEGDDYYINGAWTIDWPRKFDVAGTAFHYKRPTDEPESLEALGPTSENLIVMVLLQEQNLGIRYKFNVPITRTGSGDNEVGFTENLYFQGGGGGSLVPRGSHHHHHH
Chain of human ADAMTS4 (O75173 213-837): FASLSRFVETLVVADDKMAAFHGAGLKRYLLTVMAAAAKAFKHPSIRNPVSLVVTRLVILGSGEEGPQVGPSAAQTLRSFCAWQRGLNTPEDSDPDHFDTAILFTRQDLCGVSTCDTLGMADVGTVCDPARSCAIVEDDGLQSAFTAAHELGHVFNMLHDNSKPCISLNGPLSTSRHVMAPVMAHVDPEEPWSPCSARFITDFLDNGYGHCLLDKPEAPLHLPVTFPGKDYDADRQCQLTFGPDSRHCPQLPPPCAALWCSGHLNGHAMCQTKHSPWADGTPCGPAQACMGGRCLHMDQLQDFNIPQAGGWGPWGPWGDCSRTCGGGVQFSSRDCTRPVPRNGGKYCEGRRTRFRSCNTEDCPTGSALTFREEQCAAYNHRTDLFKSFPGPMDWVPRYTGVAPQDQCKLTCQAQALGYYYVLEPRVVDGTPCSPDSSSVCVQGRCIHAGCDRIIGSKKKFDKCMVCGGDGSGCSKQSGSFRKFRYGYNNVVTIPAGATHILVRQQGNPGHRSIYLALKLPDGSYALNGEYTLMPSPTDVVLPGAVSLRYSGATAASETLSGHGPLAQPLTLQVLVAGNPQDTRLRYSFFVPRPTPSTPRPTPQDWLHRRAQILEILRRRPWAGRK

Compound | IC50 (human ADAMTS4; [1]) [nM] | IC50 (human TACE) [nM] | IC50 (human MMP13) [nM] | IC50 (human MMP14) [nM] | IC50 (human ADAMTS6) [nM] | IC50 (human ADAMTS-5) [nM] | IC50 (human ADAMTS4) [nM]
COc1cc(N2CCN(C(=O)CCC3(c4cccc(C)n4)NC(=O)NC3=O)C[C@@H]2C)cc(F)c1F (stereo partly drawn) [Cpd 61, 5-[3-[(3S)-4-(3,4-difluoro-5-methoxy-phenyl)-3-methyl-piperazin-1-yl]-3-oxo-propyl]-5-(6-methyl-2-pyridyl)imidazolidine-2,4-dione] | > 100 | > 100 | > 100 | > 100 | 0.001 to 25 | 25 to 50 | 
COc1cc(N2CCN(C(=O)CC[C@@]3(C4CC4)NC(=O)NC3=O)C[C@@H]2C)cc(Cl)c1F [Cpd 62, (5S)-5-[3-[(3S)-4-(3-chloro-4-fluoro-5-methoxy-phenyl)-3-methyl-piperazin-1-yl]-3-oxo-propyl]-5-cyclopropyl-imidazolidine-2,4-dione] |  | > 100 | > 100 | > 100 | 0.001 to 25 | 0.001 to 25 | 50 to 100
COc1cc(N2CCN(C(=O)CC[C@@]3(C)NC(=O)NC3=O)C[C@@H]2C)cc(Cl)c1F [Cpd 63, (5R)-5-[3-[(3 S)-4-(3-chloro-4-fluoro-5-methoxy-phenyl)-3-methyl-piperazin-1-yl]-3-oxo-propyl]-5-methyl-imidazolidine-2,4-dione] | > 100 | > 100 | > 100 | > 100 | 0.001 to 25 | 25 to 50 | 
COc1cc(N2CCN(C(=O)CC[C@@]3(C4CC4)NC(=O)NC3=O)C[C@@H]2C)cc(F)c1Cl [Cpd 65, (5S)-5-[3-[(3S)-4-(4-chloro-3-fluoro-5-methoxy-phenyl)-3-methyl-piperazin-1-yl]-3-oxo-propyl]-5-cyclopropyl-imidazolidine-2,4-dione] |  | > 100 | > 100 | > 100 | 0.001 to 25 | 0.001 to 25 | 50 to 100
CCc1cc(N2CCN(C(=O)CC[C@@]3(C)NC(=O)NC3=O)CC2)ccc1Cl [Cpd 71, (5R)-5-[3-[4-(4-chloro-3-ethyl-phenyl)piperazin-1-yl]-3-oxo-propyl]-5-methyl-imidazolidine-2,4-dione] | > 100 | > 100 | > 100 | > 100 | 25 to 50 | > 100 | 
COc1cc(N2CCN(C(=O)CC[C@@]3(C)NC(=O)NC3=O)CC2)cc(OC)c1F [Cpd 74, (5R)-5-[3-[4-(4-fluoro-3,5-dimethoxy-phenyl)piperazin-1-yl]-3-oxo-propyl]-5-methyl-imidazolidine-2,4-dione] | > 100 | > 100 | > 100 | > 100 | 0.001 to 25 | > 100 | 
CCc1cc(N2CCN(C(=O)CC[C@@]3(C)NC(=O)NC3=O)C[C@@H]2C)ccc1Cl [Cpd 75, (5R)-5-[3-[(3 S)-4-(4-chloro-3-ethyl-phenyl)-3-methyl-piperazin-1-yl]-3-oxo-propyl]-5-methyl-imidazolidine-2,4-dione] | > 100 | > 100 | > 100 | > 100 | 0.001 to 25 | 50 to 100 | 
CCOc1cc(N2CCN(C(=O)CC[C@@]3(C)NC(=O)NC3=O)CC2)cc(OC)c1Cl [Cpd 79, (5R)-5-[3-[4-(4-chloro-3-ethoxy-5-methoxy-phenyl)piperazin-1-yl]-3-oxo-propyl]-5-methyl-imidazolidine-2,4-dione] | > 100 | > 100 | > 100 | > 100 | 0.001 to 25 | > 100 | 
CCOc1cc(N2CCN(C(=O)CC[C@@]3(C)NC(=O)NC3=O)C[C@@H]2C)cc(OC)c1Cl [Cpd 80, (5R)-5-[3-[(3 S)-4-(4-chloro-3-ethoxy-5-methoxy-phenyl)-3-methyl-piperazin-1-yl]-3-oxo-propyl]-5-methyl-imidazolidine-2,4-dione] | > 100 | > 100 | > 100 | > 100 | 0.001 to 25 | > 100 | 
COc1cc(N2CCN(C(=O)CC[C@@]3(C)NC(=O)NC3=O)C[C@@H]2C)cc(OC)c1F [Cpd 89, (5R)-5-[3-[(3 S)-4-(4-fluoro-3,5-dimethoxy-phenyl)-3-methyl-piperazin-1-yl]-3-oxo-propyl]-5-methyl-imidazolidine-2,4-dione] | > 100 | > 100 | > 100 | > 100 | 0.001 to 25 | > 100 | 
COc1cc(N2CCN(C(=O)CC[C@@]3(C)NC(=O)NC3=O)C[C@@H]2C)cc(Cl)c1Cl [Cpd 90, (5R)-5-[3-[(3 S)-4-(3,4-dichloro-5-methoxy-phenyl)-3-methyl-piperazin-1-yl]-3-oxo-propyl]-5-methyl-imidazolidine-2,4-dione] |  | > 100 | > 100 | > 100 | 0.001 to 25 | 0.001 to 25 | 25 to 50
COc1cc(N2CCN(C(=O)CC[C@@]3(C)NC(=O)NC3=O)C[C@@H]2C)ccc1F [Cpd 93, (5R)-5-[3-[(3 S)-4-(4-fluoro-3-methoxy-phenyl)-3-methyl-piperazin-1-yl]-3-oxo-propyl]-5-methyl-imidazolidine-2,4-dione] | > 100 | > 100 | > 100 | > 100 | 0.001 to 25 | > 100 | 
COc1cc(Cl)cc(N2CCN(C(=O)CC[C@@]3(C)NC(=O)NC3=O)C[C@@H]2C)c1 [Cpd 96, (5R)-5-[3-[(3 S)-4-(3-chloro-5-methoxy-phenyl)-3-methyl-piperazin-1-yl]-3-oxo-propyl]-5-methyl-imidazolidine-2,4-dione] | > 100 | > 100 | > 100 | > 100 | 0.001 to 25 | > 100 | 
COc1cc(N2CCN(C(=O)CC[C@@]3(C)NC(=O)NC3=O)C[C@@H]2C)cc(N(C)C)c1Cl [Cpd 99, (5R)-5-[3-[(3S)-4-[4-chloro-3-(dimethylamino)-5-methoxy-phenyl]-3-methyl-piperazin-1-yl]-3-oxo-propyl]-5-methyl-imidazolidine-2,4-dione] | > 100 | > 100 | > 100 | > 100 | 0.001 to 25 | > 100 | 
COc1cc(N2CCN(C(=O)CC[C@@]3(C)NC(=O)NC3=O)C[C@@H]2C)cc(C)c1Cl [Cpd 105, (5R)-5-[3-[(3S)-4-(4-chloro-3-methoxy-5-methyl-phenyl)-3-methyl-piperazin-1-yl]-3-oxo-propyl]-5-methyl-imidazolidine-2,4-dione] |  | > 100 | > 100 | > 100 | 0.001 to 25 | > 100 | 50 to 100
CCc1cc(N2CCN(C(=O)CC[C@@]3(C)NC(=O)NC3=O)C[C@@H]2C)cc(OC)c1Cl [Cpd 106, (5R)-5-[3-[(3 S)-4-(4-chloro-3-ethyl-5-methoxy-phenyl)-3-methyl-piperazin-1-yl]-3-oxo-propyl]-5-methyl-imidazolidine-2,4-dione] | > 100 | > 100 | > 100 | > 100 | 0.001 to 25 | > 100 | 
CC[C@H]1CN(C(=O)CC[C@@]2(C)NC(=O)NC2=O)CCN1c1ccc(Cl)c(OC)c1 [Cpd 107, (5R)-5-[3-[(3 S)-4-(4-chloro-3-methoxy-phenyl)-3-ethyl-piperazin-1-yl]-3-oxo-propyl]-5-methyl-imidazolidine-2,4-dione] | > 100 | > 100 | > 100 | > 100 | > 100 | > 100 | 
COc1cc(N2CCN(C(=O)CC[C@@]3(C)NC(=O)NC3=O)C[C@@H]2C(C)C)ccc1Cl [Cpd 109, (5R)-5-[3-[(3S)-4-(4-chloro-3-methoxy-phenyl)-3-isopropyl-piperazin-1-yl]-3-oxo-propyl]-5-methyl-imidazolidine-2,4-dione] | > 100 | > 100 | > 100 | > 100 | > 100 | > 100 | 
COc1cc(N2CCN(C(=O)CC[C@@]3(C)NC(=O)NC3=O)CC2)cc(C)c1Cl [Cpd 112, (5R)-5-[3-[4-(4-chloro-3-methoxy-5-methyl-phenyl)piperazin-1-yl]-3-oxo-propyl]-5-methyl-imidazolidine-2,4-dione] |  | > 100 | > 100 | > 100 | 0.001 to 25 | > 100 | 50 to 100
CCc1cc(N2CCN(C(=O)CC[C@@]3(C)NC(=O)NC3=O)CC2)cc(OC)c1Cl [Cpd 115, (5R)-5-[3-[4-(4-chloro-3-ethyl-5-methoxy-phenyl)piperazin-1-yl]-3-oxo-propyl]-5-methyl-imidazolidine-2,4-dione] | > 100 | > 100 | > 100 | > 100 | 0.001 to 25 | > 100 | 
COc1cc(N2CCN(C(=O)CC[C@@]3(C)NC(=O)NC3=O)CC2C(F)(F)F)ccc1Cl (stereo partly drawn) [Cpd 118, (5R)-5-[3-[4-(4-chloro-3-methoxy-phenyl)-3-(trifluoromethyl)piperazin-1-yl]-3-oxo-propyl]-5-methyl-imidazolidine-2,4-dione] | > 100 | > 100 | > 100 | > 100 | 0.001 to 25 | > 100 | 
